Columns and labels:
[1] = test system: neuraminidase (NA) of B/Victoria-lineage viruses; format: biochemical, influenza B/Victoria-lineage virus; conditions: B/Victoria-lineage, no NA amino acid substitution (None); n=3; range
[2] = test system: neuraminidase (NA) of B/Yamagata-lineage viruses; format: biochemical, influenza B/Yamagata-lineage virus; conditions: for IC50 fold-change compared to reference median IC50 values: B/Yamagata-lineage, no NA amino acid substitution (None), n=3, range
[3] = test system: neuraminidase (NA) of B/Yamagata-lineage viruses; set-up: method as in Oakley et al., 2010; conditions: B/Yamagata-lineage virus, observed before, ref Oakley et al., 2010; cited from earlier work

Compound	IC50 fold-change compared to reference median IC50 values [1]	Included in phenotypic analysis: inhibition category (HRI/RI/NI) [2]	IC50 fold-change compared to reference median IC50 values [2]	inhibition category conferred by NA D197N [3]
[H]/N=C(\N)N[C@H]1C=C(C(=O)O)O[C@@H]([C@H](OC)[C@H](O)CO)[C@@H]1NC(C)=O [Laninamivir, laninamivir]	0.7–4.7 fold	Yes (RI to zanamivir, oseltamivir, peramivir and laninamivir) (key: NI < 5-fold; RI 5 to 50-fold; HRI > 50-fold)	0.6–5.1 fold	
CCOC(=O)C1=C[C@@H](OC(CC)CC)[C@H](NC(C)=O)[C@@H](N)C1 [Oseltamivir, oseltamivir]	0.6–4.1 fold		1.7–10 fold	
CCC(CC)[C@H](NC(C)=O)[C@@H]1[C@H](O)[C@@H](C(=O)O)C[C@H]1N=C(N)N [Peramivir, peramivir]	0.9–6.5 fold		2.0–7.8 fold	RI (RI 5 to 50-fold)
CC(=O)N[C@H]1[C@H]([C@H](O)[C@H](O)CO)OC(C(=O)O)=C[C@@H]1N=C(N)N [Zanamivir, zanamivir]	0.7–8.7 fold	Yes (RI to zanamivir, oseltamivir, peramivir and laninamivir) (key: NI < 5-fold; RI 5 to 50-fold; HRI > 50-fold)	0.9–5.3 fold	RI (RI 5 to 50-fold)

Reference: paper PMC9036627, “Global update on the susceptibility of human influenza viruses to neuraminidase inhibitors, 2013–2014” (Antiviral research, 2015)
